Laboratory results published in publication PMC6608960 (PLoS ONE, 2019).
Where a SMILES comes first, the peptide text is derived from it.

How the values were obtained:
Wistar rats = test: Urine, sodium and potassium outflow after iv injection in rats (metabolic cages, 5 h); format: in vivo; settings: Wistar rat
Description: Experiments were performed using 8-week-old Wistar rats (225-250g) purchased from Charles River laboratories (St. Constant, QC, CA). Rats were housed in a standard temperature and light condition with access to water and irradiated standard rodent diet (Harlan Laboratories Inc., IN, USA) ad libitum. At the end of experiments, rats were anaesthetized with sodium pentobarbital (5mg/100 g body wt. i.p.; 20 𝜇mol/100 g body wt.) and blood samples (2mL, EDTA) were collected. Rats were euthanized by cervical decapitation.
Peptides were dissolved at the desired concentration in 0.3 mL of the vehicle and administered as a single bolus in the tail vein.
Both antagonists (OTA, V2A) were administered to rats at the concentration of 10 μmol/kg under normal conditions (0.3 mL iv injection) and with blood volume expansion (5 mL iv injection). Rats (n = 24 per condition) received combination treatment in random order separated by a 2–3 day interval. For both series of experiments, rats were placed in metabolic cages for a period of 5 hours to collect urine for the determination of sodium and potassium levels. Metabolic cages were kept in a bright and quiet room and rats were deprived of food and water during this period.
The concentrations of excreted sodium and potassium were determined by flame spectrometry (iCE 3000 series AA spectrometer; Thermo Fisher Scientific, Cambridge, UK).

[1] = molecular target: T1, V2 receptor (AVP-R2) overexpressed in CHO-K1 cells (Homo sapiens, UniProt P30518); test: Intracellular cAMP release in AVP-R2 CHO-K1 cells (cAMP Hunter eXpress); format: cell-based; settings: peptide alone, 30 min at 37°C, chemiluminescent read-out
T1 construct: host or cells: CHO-K1
T1 sequence (P30518 whole entry): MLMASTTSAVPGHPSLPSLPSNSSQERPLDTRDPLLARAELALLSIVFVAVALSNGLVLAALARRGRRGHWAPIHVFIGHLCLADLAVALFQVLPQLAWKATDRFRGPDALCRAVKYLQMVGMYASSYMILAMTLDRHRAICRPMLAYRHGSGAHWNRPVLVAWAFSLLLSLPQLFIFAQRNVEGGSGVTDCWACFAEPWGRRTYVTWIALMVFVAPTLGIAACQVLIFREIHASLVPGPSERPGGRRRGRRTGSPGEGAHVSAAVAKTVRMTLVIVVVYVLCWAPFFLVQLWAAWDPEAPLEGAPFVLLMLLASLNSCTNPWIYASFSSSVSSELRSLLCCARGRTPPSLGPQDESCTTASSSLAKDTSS
Description: Changes in intracellular cAMP level in response to agonist stimulation of the GPCR receptor was detected with a chemiluminescent cAMP Hunter eXpress Cat.No: # 95-0150E2CP2M kit from DiscoveRx (www.discoverx.com). A standard curve of cAMP (in duplicate) was included in the same plate and used to report data in nM cAMP. […] The values of cAMP were presented as relative light units (RLU) or they were calculated in nM from the standard curve.

[d(CH2)5, Tyr(Me)2, Thr4, Orn8, Tyr-NH29]-vasotocin [OTA]
effect of antagonist on OT-stimulated diuresis (Wistar rats; OTA co-administered with OT, normal volume and blood volume expansion (5 mL)): inhibited OT-stimulated diuresis to control and BVE levels

CC[C@H](C)[C@@H]1NC(=O)[C@H](Cc2ccc(O)cc2)NC(=O)[C@@H](N)CSSC[C@@H](C(=O)N2CCC[C@H]2C(=O)N[C@@H](CC(C)C)C(=O)NCC(=O)NCC(=O)N[C@@H](CCCCN)C(=O)N[C@@H](CCCNC(=N)N)C(=O)O)NC(=O)[C@H](CC(N)=O)NC(=O)[C@H](CCC(N)=O)NC1=O [OT-GKR] (HELM PEPTIDE1{C.Y.I.Q.N.C.P.L.G.G.K.R}$PEPTIDE1,PEPTIDE1,1:R3-6:R3$$$V2.0)
EC50 [1]: 1100 nM

[d(CH2)5, D-Ile2, Ile4, Tyr-NH29]-AVP [V2A]
effect of antagonist alone on diuresis (Wistar rats; V2A alone iv, normal volume and blood volume expansion): significant diuresis
